# Test results taken from PubChem BioAssay (NCI).
#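 Interpolation was linear, between the two tested concentrations surrounding the appropriate level; five concentrations were tested over 48 hours in 96-well plates. GI50 is the concentration that inhibits growth by half. TGI denotes the concentration required for complete inhibition of growth.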
# Experiments:
# Assay in all cases: growth of human tumour cells (NCI), 48 h
# [1] = system: M14 melanoma
# [2] = system: MALME-3M melanoma
# [3] = system: HL-60(TB) leukemia
# [4] = system: SK-MEL-28 melanoma
# [5] = system: T-47D breast
# [6] = system: KM12 colon
# [7] = system: SR leukemia
# [8] = system: OVCAR-8 ovarian
# [9] = system: A498 renal
# [10] = system: UACC-62 melanoma
Structure (SMILES),GI50 [1] [µM],TGI [1] [µM],GI50 [2] [µM],TGI [2] [µM],GI50 [3] [µM],TGI [3] [µM],GI50 [4] [µM],TGI [4] [µM],GI50 [5] [µM],TGI [5] [µM],GI50 [6] [µM],TGI [6] [µM],GI50 [7] [µM],TGI [7] [µM],GI50 [8] [µM],TGI [8] [µM],GI50 [9] [µM],TGI [9] [µM],GI50 [10] [µM],TGI [10] [µM]
N#Cc1c2ccccc2c2nnc3cc(C(F)(F)F)ccc3n12,29.7,> 100,> 100,> 100,58.6,> 100,92.3,> 100,> 100,> 100,> 100,> 100,31.3,> 100,68.6,> 100,,,,
COc1cc2c3c(n(CCCO)c(=O)c2cc1OC)-c1cc2c(cc1C3=O)OCO2,3.68,32.8,21.6,> 100,2.34,10.4,> 31.2,> 100,14.2,> 100,27.7,> 100,,,13.7,> 100,42.8,> 73,2.45,25.3
Cc1ccc(C2=[N+]([O-])c3ccccc3C2=O)cc1,,59.4,,41,,33.6,,22,,,,50.9,,> 100,,36,,> 100,,33.1
CC1=C2C(=CC(C)(CO)C2O)C(=O)C(C)(O)C12CC2 (stereo not drawn),,0.0104,,0.0105,,0.00697,,0.0138,,,,0.0219,,0.146,,0.0127,,0.0204,,0.00784
O=C(O)C(Cc1ccccc1-c1ccccc1)C(=O)O,,> 100,,> 100,,,,> 100,,> 100,,> 100,,> 100,,> 100,,> 100,,> 100
C=C(CN1CCc2ccccc2C1)c1ccc(/C=C/C(=O)Nc2ccccc2N)cc1,,,0.309,8.04,4.28,76.8,46.7,> 100,10.5,> 100,0.965,> 100,,,5.86,> 100,16.4,36.8,4.99,22.8
O=C1C(Cl)=C(Oc2ccccc2)C(=O)c2ccccc21,8.55,22,1.6,3.41,2.54,17.7,13.5,27.1,,,2.84,8.84,4.49,39.1,14.3,36.8,9.24,22.6,3.46,11.7
COc1cc(/C=C2\CC(C)CC3C2=NN(c2ccccc2)C3c2cc(OC)c(OC)c(OC)c2)cc(OC)c1OC (stereo not drawn),14.9,52.1,21.3,> 100,6.48,90.6,11.2,39.7,4.07,31.7,7.28,40.8,,,10.2,> 100,13.5,42.5,11.7,57.1
